Read-outs that look alike come from different tables or passages of the source.
What was measured:
Format in all cases: in vivo
aphids, Myzus persicae = assay: Potter tower spray on aphids, knockdown and mortality; conditions: Aphids; for pest or weed control at 0.00625 % strength / pest or weed control at 0.0125 % strength / pest or weed control at 0.025 % strength / pest or weed control at 0.05 % strength / pest or weed control at 0.1 % strength: Myzus persicae, read-out: Average of % corrected affected; for pest or weed control at 0.1 % strength: 0.1 % w/v
From the text: (§1) The compounds were screened for insecticidal efficacy against aphids, Myzus persicae, Cabbage moth, Mamestra brassicae, diamond black moths, Plutella xylostella, red spider mites, Tetranychus urticae, whitefly, Trialeurodes vaporariorum, in terms of knockdown and mortality.
(§2) Myzus persicae, Cabbage moth, Mamestra brassicae, diamond back moths, Plutella xylostella, red spider mites, Tetranychus urticae, whitefly, Trialeurodes vaporariorum, were obtained from specified laboratory cultures. Mixed sex and age aphids and mites, moth larvae and whitefly scale infested leaves were used in the experiments. Environmental conditions were closely monitored and recorded and were within the optimal range of the target species.
(§3) The compounds were screened at a range of five concentrations, diluted in DMSO. Some of the compounds were screened against aphids, whitefly and red spider mites and other compounds were screened against cabbage moth, and diamond black moths. A carrier only and an untreated control will also be conducted. Treatments were applied directly onto the insects within Petri dishes, using a potter tower.
(§4) Twenty mites and ten aphids, scales and moth larvae were placed within a Petri dish, lined with a suitable leaf disc on a damp cotton wool pad. Scales were already on leaves. The Petri dishes were then sprayed using a potter tower. The number of knocked down and anthropods were assessed at 24 and 48 hours post treatment. Five replicates were be performed for each treatment, for each species.
(§5) For Tables 2, 4, 5 and 6, the compounds were diluted in DMSO containing 1% v/v Tween 20™. For Tables 2, 4, 5 and 6, the caterpillars were a mixture of Mamestra brassicae and Lacanobia oleracea.

[1] = system: red spider mites, Tetranychus urticae; assay: Potter tower spray on red spider mites, knockdown and mortality; conditions: Spider mites
From the text: as §1, §2, §3, §4

[2] = system: caterpillars, a mixture of Mamestra brassicae and Lacanobia oleracea; assay: Potter tower spray on caterpillars, knockdown and mortality; conditions: for pest or weed control at 0.00625 % strength / pest or weed control at 0.0125 % strength / pest or weed control at 0.025 % strength / pest or weed control at 0.05 % strength / pest or weed control at 0.1 % strength / pest or weed control at 0.003125 % strength / Average of % corrected affected: Caterpillars; for pest or weed control at 0.00625 % strength: 0.00625 % w/v; for pest or weed control at 0.00625 % strength / pest or weed control at 0.0125 % strength / pest or weed control at 0.025 % strength / pest or weed control at 0.05 % strength / pest or weed control at 0.1 % strength / pest or weed control at 0.003125 % strength: read-out: Average of % corrected affected; for pest or weed control at 0.05 % strength: 0.05 % w/v; for pest or weed control at 0.1 % strength: 0.1 % w/v
From the text: as §2, §3, §4, §5

[3] = 24 h, 0.00625 % w/v, 24 hours post application
[4] = 24 h, 0.0125 % w/v, 24 hours post application
[5] = 24 h, 0.025 % w/v, 24 hours post application
[6] = 24 h, 0.05 % w/v, 24 hours post application
[7] = 24 h, 24 hours post application
[8] = 48 h, 0.0125 % w/v, 48 hours post application
[9] = 48 h, 0.025 % w/v, 48 hours post application
[10] = 48 h, 0.05 % w/v, 48 hours post application
[11] = 48 h, 48 hours post application
[12] = 0.0125 % w/v, 48 hours post application
[13] = 0.025 % w/v, 24 hours post application
[14] = 0.025 % w/v, 48 hours post application

## O=C1C=C(N(Cc2ccc(Cl)nc2)CC(F)F)CO1 [Compound 1, 3-[(6-Chloro-3-pyridyl)methyl-(2,2-difluoroethyl)amino]-2H-furan-5-one, reference compound]
aphids, Myzus persicae; 25 g/ha, 24 h
  percentage control: E (A percentage control of from 1 to 19 is indicated by the letter E)
aphids, Myzus persicae; 25 g/ha, 48 h
  percentage control: C (A percentage control of from 40 to 59 is indicated by the letter C)
aphids, Myzus persicae; 50 g/ha, 24 h
  percentage control: D (A percentage control of from 20 to 39 is indicated by the letter D)
aphids, Myzus persicae; 50 g/ha, 48 h
  percentage control: A (A percentage control of from 80 to 100 is indicated by the letter A)
aphids, Myzus persicae; 100 g/ha, 24 h
  percentage control: D (A percentage control of from 20 to 39 is indicated by the letter D)
aphids, Myzus persicae; 100 g/ha, 48 h
  percentage control: A (A percentage control of from 80 to 100 is indicated by the letter A)
aphids, Myzus persicae; 200 g/ha, 24 h
  percentage control: C (A percentage control of from 40 to 59 is indicated by the letter C)
aphids, Myzus persicae; 200 g/ha, 48 h
  percentage control: A (A percentage control of from 80 to 100 is indicated by the letter A)
aphids, Myzus persicae; 400 g/ha, 24 h
  percentage control: B (A percentage control of from 60 to 79 is indicated by the letter B)
aphids, Myzus persicae; 400 g/ha, 48 h
  percentage control: A (A percentage control of from 80 to 100 is indicated by the letter A)
[1]; 25 g/ha, 24 h
  percentage control: D (A percentage control of from 20 to 39 is indicated by the letter D)
[1]; 25 g/ha, 48 h
  percentage control: D (A percentage control of from 20 to 39 is indicated by the letter D)
[1]; 50 g/ha, 24 h
  percentage control: D (A percentage control of from 20 to 39 is indicated by the letter D)
[1]; 50 g/ha, 48 h
  percentage control: D (A percentage control of from 20 to 39 is indicated by the letter D)
[1]; 100 g/ha, 24 h
  percentage control: E (A percentage control of from 1 to 19 is indicated by the letter E)
[1]; 100 g/ha, 48 h
  percentage control: D (A percentage control of from 20 to 39 is indicated by the letter D)
[1]; 200 g/ha, 24 h
  percentage control: D (A percentage control of from 20 to 39 is indicated by the letter D)
[1]; 200 g/ha, 48 h
  percentage control: D (A percentage control of from 20 to 39 is indicated by the letter D)
[1]; 400 g/ha, 24 h
  percentage control: D (A percentage control of from 20 to 39 is indicated by the letter D)
[1]; 400 g/ha, 48 h
  percentage control: C (A percentage control of from 40 to 59 is indicated by the letter C)

## CCOC(=O)CN(Cc1ccc(Cl)nc1)C1=CC(=O)OC1 [Compound 3, Ethyl 2-[(6-chloro-3-pyridyl)methyl-(5-oxo-2H-furan-3-yl)amino]acetate]
aphids, Myzus persicae; 25 g/ha, 24 h
  percentage control: E (A percentage control of from 1 to 19 is indicated by the letter E)
aphids, Myzus persicae; 25 g/ha, 48 h
  percentage control: D (A percentage control of from 20 to 39 is indicated by the letter D)
aphids, Myzus persicae; 50 g/ha, 24 h
  percentage control: 0%
aphids, Myzus persicae; 50 g/ha, 48 h
  percentage control: C (A percentage control of from 40 to 59 is indicated by the letter C)
aphids, Myzus persicae; 100 g/ha, 24 h
  percentage control: E (A percentage control of from 1 to 19 is indicated by the letter E)
aphids, Myzus persicae; 100 g/ha, 48 h
  percentage control: B (A percentage control of from 60 to 79 is indicated by the letter B)
aphids, Myzus persicae; 200 g/ha, 24 h
  percentage control: E (A percentage control of from 1 to 19 is indicated by the letter E)
aphids, Myzus persicae; 200 g/ha, 48 h
  percentage control: C (A percentage control of from 40 to 59 is indicated by the letter C)
aphids, Myzus persicae; 400 g/ha, 24 h
  percentage control: E (A percentage control of from 1 to 19 is indicated by the letter E)
aphids, Myzus persicae; 400 g/ha, 48 h
  percentage control: B (A percentage control of from 60 to 79 is indicated by the letter B)
aphids, Myzus persicae; [3]
  pest or weed control at 0.00625 % strength: 1 to 19%
aphids, Myzus persicae; [4]
  pest or weed control at 0.0125 % strength: 1 to 19%
aphids, Myzus persicae; [5]
  pest or weed control at 0.025 % strength: 1 to 19%
aphids, Myzus persicae; [6]
  pest or weed control at 0.05 % strength: 1 to 19%
aphids, Myzus persicae; [7]
  pest or weed control at 0.1 % strength: 1 to 19%
aphids, Myzus persicae; 48 h, 0.00625 % w/v, 48 hours post application
  pest or weed control at 0.00625 % strength: 1 to 19%
aphids, Myzus persicae; [8]
  pest or weed control at 0.0125 % strength: 1 to 19%
aphids, Myzus persicae; [9]
  pest or weed control at 0.025 % strength: 20 to 39%
aphids, Myzus persicae; [10]
  pest or weed control at 0.05 % strength: 20 to 39%
aphids, Myzus persicae; [11]
  pest or weed control at 0.1 % strength: 20 to 39%
[1]; 25 g/ha, 24 h
  percentage control: B (A percentage control of from 60 to 79 is indicated by the letter B)
[1]; 25 g/ha, 48 h
  percentage control: C (A percentage control of from 40 to 59 is indicated by the letter C)
[1]; 50 g/ha, 24 h
  percentage control: D (A percentage control of from 20 to 39 is indicated by the letter D)
[1]; 50 g/ha, 48 h
  percentage control: D (A percentage control of from 20 to 39 is indicated by the letter D)
[1]; 100 g/ha, 24 h
  percentage control: C (A percentage control of from 40 to 59 is indicated by the letter C)
[1]; 100 g/ha, 48 h
  percentage control: C (A percentage control of from 40 to 59 is indicated by the letter C)
[1]; 200 g/ha, 24 h
  percentage control: D (A percentage control of from 20 to 39 is indicated by the letter D)
[1]; 200 g/ha, 48 h
  percentage control: D (A percentage control of from 20 to 39 is indicated by the letter D)
[1]; 400 g/ha, 24 h
  percentage control: D (A percentage control of from 20 to 39 is indicated by the letter D)
[1]; 400 g/ha, 48 h
  percentage control: D (A percentage control of from 20 to 39 is indicated by the letter D)
[2]; [7]
  pest or weed control at 0.00625 % strength: 1 to 19%
  pest or weed control at 0.05 % strength: 1 to 19%
  pest or weed control at 0.1 % strength: 1 to 19%
[2]; [4]
  pest or weed control at 0.0125 % strength: 1 to 19%
[2]; [5]
  pest or weed control at 0.025 % strength: 1 to 19%
[2]; [11]
  pest or weed control at 0.00625 % strength: 1 to 19%
  pest or weed control at 0.05 % strength: 1 to 19%
  pest or weed control at 0.1 % strength: 20 to 39%
[2]; [8]
  pest or weed control at 0.0125 % strength: 1 to 19%
[2]; [9]
  pest or weed control at 0.025 % strength: 1 to 19%

## O=C(Nc1ccc(-c2cncnc2)oc1=O)C1CC1 [Compound 26, N-[2-Oxo-6-(5-pyrimidyl)pyran-3-yl]cyclopropanecarboxamide]
aphids, Myzus persicae; 0.00625 % w/v, 24 hours post application
  Average of % corrected affected: E (A percentage control of from 1 to 19 is indicated by the letter E)
aphids, Myzus persicae; [12]
  Average of % corrected affected: E (A percentage control of from 1 to 19 is indicated by the letter E)
aphids, Myzus persicae; [13]
  Average of % corrected affected: E (A percentage control of from 1 to 19 is indicated by the letter E)
aphids, Myzus persicae; [14]
  Average of % corrected affected: E (A percentage control of from 1 to 19 is indicated by the letter E)
aphids, Myzus persicae; 0.05 % w/v, 24 hours post application
  Average of % corrected affected: E (A percentage control of from 1 to 19 is indicated by the letter E)
aphids, Myzus persicae; 0.05 % w/v, 48 hours post application
  Average of % corrected affected: E (A percentage control of from 1 to 19 is indicated by the letter E)
aphids, Myzus persicae; [3]
  pest or weed control at 0.00625 % strength: 1 to 19%
aphids, Myzus persicae; [5]
  pest or weed control at 0.025 % strength: 1 to 19%
aphids, Myzus persicae; [6]
  pest or weed control at 0.05 % strength: 1 to 19%
aphids, Myzus persicae; [8]
  pest or weed control at 0.0125 % strength: 1 to 19%
aphids, Myzus persicae; [10]
  pest or weed control at 0.05 % strength: 1 to 19%
[2]; 0.05%
  control against caterpillars compared with reference compound 25: greater control
[2]; 24 h, 0.003125 % w/v, 24 hours post application
  pest or weed control at 0.003125 % strength: 1 to 19%
[2]; [4]
  pest or weed control at 0.0125 % strength: 1 to 19%
[2]; [5]
  pest or weed control at 0.025 % strength: 1 to 19%
[2]; 48 h, 0.003125 % w/v, 48 hours post application
  pest or weed control at 0.003125 % strength: 1 to 19%
[2]; [8]
  pest or weed control at 0.0125 % strength: 1 to 19%
[2]; [9]
  pest or weed control at 0.025 % strength: 1 to 19%
[2]; 0.003125 % w/v, 24 hours post application
  Average of % corrected affected: E (A percentage control of from 1 to 19 is indicated by the letter E)
[2]; 0.003125 % w/v, 48 hours post application
  Average of % corrected affected: E (A percentage control of from 1 to 19 is indicated by the letter E)
[2]; 0.0125 % w/v, 24 hours post application
  Average of % corrected affected: E (A percentage control of from 1 to 19 is indicated by the letter E)
[2]; [12]
  Average of % corrected affected: E (A percentage control of from 1 to 19 is indicated by the letter E)
[2]; [13]
  Average of % corrected affected: E (A percentage control of from 1 to 19 is indicated by the letter E)
[2]; [14]
  Average of % corrected affected: E (A percentage control of from 1 to 19 is indicated by the letter E)

Reference: patent US20160212997A1, “AGRICULTURAL CHEMICALS” (REDAG CROP PROTECTION LTD, priority 2013, published 2016)
